Source: publication PMC4427492, “The Repellent DEET Potentiates Carbamate Effects via Insect Muscarinic Receptor Interactions: An Alternative Strategy to Control Insect Vector-Borne Diseases” (PLoS ONE, 2015)

Experiments:
[1] = molecular target: T1, human M3 muscarinic acetylcholine receptor (hM3 mAChR) (Homo sapiens, UniProt P20309); assay: [3H]NMS radioligand displacement; also antagonism of CCh-induced calcium mobilization; assay type: binding
T1 construct: gene CHRM3; membranes of CHO cells stably expressing human M3
T1 sequence (P20309 whole entry): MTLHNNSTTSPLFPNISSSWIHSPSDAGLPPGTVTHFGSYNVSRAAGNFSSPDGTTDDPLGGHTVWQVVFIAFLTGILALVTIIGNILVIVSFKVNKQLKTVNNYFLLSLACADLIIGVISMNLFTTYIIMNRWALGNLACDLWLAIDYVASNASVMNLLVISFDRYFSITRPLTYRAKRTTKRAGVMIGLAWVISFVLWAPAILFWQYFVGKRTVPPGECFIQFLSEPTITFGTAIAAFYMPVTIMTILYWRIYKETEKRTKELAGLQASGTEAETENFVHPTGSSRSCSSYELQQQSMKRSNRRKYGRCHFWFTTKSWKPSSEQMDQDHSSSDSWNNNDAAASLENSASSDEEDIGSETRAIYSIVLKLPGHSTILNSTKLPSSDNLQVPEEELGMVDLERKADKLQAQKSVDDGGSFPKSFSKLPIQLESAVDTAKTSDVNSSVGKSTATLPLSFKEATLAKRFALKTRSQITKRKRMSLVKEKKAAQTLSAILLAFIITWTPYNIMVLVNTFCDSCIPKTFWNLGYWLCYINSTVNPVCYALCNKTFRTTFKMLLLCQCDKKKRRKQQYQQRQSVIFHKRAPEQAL

[2] = molecular target: T2, human M1 muscarinic acetylcholine receptor (hM1 mAChR) (Homo sapiens, UniProt P11229); assay: as above; assay type: binding
T2 construct: gene CHRM1; membranes of CHO cells stably expressing human M1
T2 sequence (P11229 1-460): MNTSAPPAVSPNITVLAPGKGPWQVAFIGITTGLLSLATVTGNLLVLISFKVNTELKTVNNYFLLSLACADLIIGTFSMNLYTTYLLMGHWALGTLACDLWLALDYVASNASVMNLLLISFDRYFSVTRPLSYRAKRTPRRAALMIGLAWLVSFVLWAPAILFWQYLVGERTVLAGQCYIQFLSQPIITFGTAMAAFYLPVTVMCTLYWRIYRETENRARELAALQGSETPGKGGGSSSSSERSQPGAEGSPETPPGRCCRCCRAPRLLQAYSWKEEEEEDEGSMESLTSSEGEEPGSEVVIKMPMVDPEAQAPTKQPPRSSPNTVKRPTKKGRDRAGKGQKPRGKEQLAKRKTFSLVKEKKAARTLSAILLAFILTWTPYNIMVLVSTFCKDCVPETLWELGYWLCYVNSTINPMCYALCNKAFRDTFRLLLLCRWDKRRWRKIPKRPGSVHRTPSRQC
Excerpt: [3H]NMS radioligand displacement; also antagonism of CCh-induced calcium mobilization on human M1 muscarinic acetylcholine receptor (hM1 mAChR) | DEET displaced the [^3H]N-Methyl Scopolamine (NMS) binding from M1 and M3 mAChRs but only in the millimolar range

[3] = test system: acetylcholinesterase (AChE); assay: Ellman spectrophotometric AChE activity assay on DUM neuron suspension; assay type: cell-based, Periplaneta americana

Structure (SMILES) | Ki [1] | Ki [2] | IC50 [3]
CCN(CC)C(=O)c1cccc(C)c1 [DEET, N,N-Diethyl-3-methylbenzamide] | 370 ± 20 µM | 690 ± 190 µM | 
CNC(=O)Oc1ccccc1OC(C)C [propoxur, 2-isopropoxyphenylmethylcarbamate] |  |  | 0.02 µM
